Experimental data taken from patent US12486267B2, “Imidazo[1,2-A]pyridine and [1,2,4]triazolo[1,5-A]pyridine derivatives as TLR9 inhibitors for the treatment of fibrosis” (BRISTOL-MYERS SQUIBB COMPANY, priority 2020, dated 2025).

Each molecule was assayed against T1, human TLR9 (Homo sapiens, UniProt Q9NR96) (assay: TLR9 inhibition reporter assay (HEK-Blue cells, SEAP reporter)). Conditions: HEK-Blue cells overexpressing human TLR9; stimulated with ODN2006 5 nM; 22 hour incubation; SEAP readout.
T1 sequence (Q9NR96 26-1032): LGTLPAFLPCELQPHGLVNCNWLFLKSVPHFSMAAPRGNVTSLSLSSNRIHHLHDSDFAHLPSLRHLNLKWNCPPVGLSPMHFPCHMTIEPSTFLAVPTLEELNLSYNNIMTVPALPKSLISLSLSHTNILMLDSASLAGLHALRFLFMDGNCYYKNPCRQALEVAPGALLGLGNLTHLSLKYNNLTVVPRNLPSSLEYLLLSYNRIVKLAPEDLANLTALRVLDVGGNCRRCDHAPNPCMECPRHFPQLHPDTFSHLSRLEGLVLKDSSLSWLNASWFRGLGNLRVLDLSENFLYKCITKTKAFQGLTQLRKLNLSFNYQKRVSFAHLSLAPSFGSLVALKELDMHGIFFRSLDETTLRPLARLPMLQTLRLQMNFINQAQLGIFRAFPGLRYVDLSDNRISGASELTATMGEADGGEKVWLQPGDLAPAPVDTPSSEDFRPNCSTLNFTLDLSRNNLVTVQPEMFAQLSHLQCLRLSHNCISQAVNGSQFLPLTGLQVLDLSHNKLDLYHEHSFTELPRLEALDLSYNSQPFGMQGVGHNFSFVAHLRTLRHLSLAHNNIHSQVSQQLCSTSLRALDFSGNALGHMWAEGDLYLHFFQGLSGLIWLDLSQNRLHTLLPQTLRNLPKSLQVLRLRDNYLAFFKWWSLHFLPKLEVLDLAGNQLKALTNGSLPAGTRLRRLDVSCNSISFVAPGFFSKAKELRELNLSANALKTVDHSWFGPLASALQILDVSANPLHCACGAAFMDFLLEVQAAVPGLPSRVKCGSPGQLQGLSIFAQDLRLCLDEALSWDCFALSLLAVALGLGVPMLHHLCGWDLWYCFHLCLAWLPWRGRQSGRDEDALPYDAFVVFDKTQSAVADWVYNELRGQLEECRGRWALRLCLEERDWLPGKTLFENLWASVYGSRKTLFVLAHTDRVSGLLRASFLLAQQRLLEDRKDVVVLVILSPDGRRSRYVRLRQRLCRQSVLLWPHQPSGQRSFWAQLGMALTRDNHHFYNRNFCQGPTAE
Type: cell-based
Experimental: TLR7/8/9 Inhibition Reporter Assays
HEK-Blue™-cells (Invivogen) overexpressing human TLR7, TLR8 or TLR9 receptors were used for screening inhibitors of these receptors using an inducible SEAP (secreted embryonic alkaline phosphatase) reporter gene under the control of the […] minimal promoter fused to five NF-κB and AP-1-binding sites. Briefly, cells are seeded into Greiner 384 well plates (15000 cells per well for TLR7, 20,000 for TLR8 and 25,000 for TLR9) and then treated with test compounds in DMSO to yield a final dose response concentration range of 0.05 nM-50 μM. After a 30 minute compound pre-treatment at room temperature, the cells are then stimulated with a TLR7 ligand (gardiquimod at a final concentration of 7.5 μM), TLR8 ligand (R848 at a final concentration of 15.9 μM) or TLR9 ligand (ODN2006 at a final concentration of 5 nM) to activate NF-κB and AP-1 which induce the production of SEAP. After a 22 hour incubation at 37° C., 5% CO2, SEAP levels are determined with the addition of HEK-Blue™ Detection reagent (Invivogen), a cell culture medium that allows for detection of SEAP, according to manufacturer's specifications. The percent inhibition is determined as the % reduction in the HEK-Blue signal present in wells treated with agonist plus DMSO alone compared to wells treated with a known inhibitor.

IC50 [nM] | SMILES
1460 | COc1ccc(-c2nc3n(n2)CC(c2ccc(N4CCN(C(C)C)CC4)cc2)CC3C)cc1OC (centres unmarked) [Example 144, 2-(3,4-dimethoxyphenyl)-6-(4-(4-isopropylpiperazin-1-yl)phenyl)-8-methyl-5,6,7,8-tetrahydro-[1,2,4]triazolo[1,5-a]pyridine]
1630 | CC(C)N1CCN(c2ccc(-c3ccc4nc(-c5ccc(S(C)(=O)=O)cc5)nn4c3)cc2)CC1 [Example 167, 6-(4-(4-isopropylpiperazin-1-yl)phenyl)-2-(4-(methylsulfonyl)phenyl)-[1,2,4]triazolo[1,5-a]pyridine]
83 | Cc1cc(C2CCN(C3CCN(CC4CCC4)CC3)CC2)cn2cc(-c3ccc(S(C)(=O)=O)cc3)nc12 [Example 93, 6-(1′-(cyclobutylmethyl)-[1,4′-bipiperidin]-4-yl)-8-methyl-2-(4-(methylsulfonyl)phenyl)imidazo[1,2-a]pyridine]
628 | COc1ccc(-c2nc3ccc(-c4ccc(N5CC6CCC(C5)N6C(C)C)cc4)cn3n2)cc1OC [Example 166]
9.1 | CC(C)CN1C2CCC1CC(N1CCC([C@@H]3CCc4nc(-c5ccc(S(C)(=O)=O)cc5)cn4C3)CC1)C2 (single isomer, unassigned) [Example 81]
270 | Cc1cc(C2CCN(C3CCN(C4CC4)CC3)CC2)cn2nc(-c3ccc(S(C)(=O)=O)cc3)nc12 [Example 161, 6-(1′-cyclopropyl-[1,4′-bipiperidin]-4-yl)-8-methyl-2-(4-(methylsulfonyl)phenyl)-[1,2,4]triazolo[1,5-a]pyridine]
113 | COc1ccc(-c2nc3ccc(C4CCN(C5CCN(C(C)C)CC5)CC4)cn3n2)cc1OC [Example 165, 2-(3,4-dimethoxyphenyl)-6-(1′-isopropyl-[1,4′-bipiperidin]-4-yl)-[1,2,4]triazolo[1,5-a]pyridine]
659 | Cc1cc(-c2ccc(N3CC4CCC(C3)N4C(C)C)cc2)cn2nc(-c3ccc(S(C)(=O)=O)cc3)nc12 [Example 153, 6-(4-(8-isopropyl-3,8-diazabicyclo[3.2.1]octan-3-yl)phenyl)-8-methyl-2-(4-(methylsulfonyl)phenyl)-[1,2,4]triazolo[1,5-a]pyridine]
102 | Cc1cc(C2CCN(C3CC4CCC(C3)N4CC(C)C)CC2)cn2cc(-c3ccc(S(C)(=O)=O)cc3)nc12 (single isomer, unassigned) [Example 86, 6-(1-(8-isobutyl-8-azabicyclo[3.2.1]octan-3-yl)piperidin-4-yl)-8-methyl-2-(4-(methylsulfonyl)phenyl)imidazo[1,2-a]pyridine]
1000 | COCCN1CCN(c2ccc(-c3cc(C)c4nc(-c5ccc(S(C)(=O)=O)cc5)cn4c3)cc2)CC1 [Example 105, 6-(4-(4-(2-methoxyethyl)piperazin-1-yl)phenyl)-8-methyl-2-(4-(methylsulfonyl)phenyl) imidazo[1,2-a]pyridine]
909 | Cc1cc(-c2ccc(N3CCN(C(C)C)CC3)cc2)cn2nc(-c3ccc(S(C)(=O)=O)cc3)nc12 [Example 147, 6-(4-(4-isopropylpiperazin-1-yl)phenyl)-8-methyl-2-(4-(methylsulfonyl)phenyl)-[1,2,4]triazolo[1,5-a]pyridine]
104 | Cc1cc(C2CCN(C3CC4CCC(C3)N4CC3CCC3)CC2)cn2cc(-c3ccc(S(C)(=O)=O)cc3)nc12 (single isomer, unassigned) [Example 90, 6-(1-(8-(cyclobutylmethyl)-8-azabicyclo[3.2.1]octan-3-yl)piperidin-4-yl)-8-methyl-2-(4-(methylsulfonyl)phenyl)imidazo[1,2-a]pyridine]

The remaining lines, values behind:

SMILES | IC50 [nM]
Cc1cc(C2CCN(C3CC4CCC(C3)N4CC3CC3)CC2)cn2cc(-c3ccc(S(C)(=O)=O)cc3)nc12 (single isomer, unassigned) [Example 88, 6-(1-(8-(cyclopropylmethyl)-8-azabicyclo[3.2.1]octan-3-yl)piperidin-4-yl)-8-methyl-2-(4-(methylsulfonyl)phenyl) imidazo[1,2-a]pyridine] | 120
COc1ccc(-c2nc3c(C)cc(C4CCN(C5CCN(C6CC6)CC5)CC4)cn3n2)cc1OC [Example 157, 6-(1′-cyclopropyl-[1,4′-bipiperidin]-4-yl)-2-(3,4-dimethoxyphenyl)-8-methyl-[1,2,4]triazolo[1,5-a]pyridine] | 232
COc1ccc(-c2nc3c(C)cc(C4CC5CCC(C4)N5C4CCN(C(C)C)CC4)cn3n2)cc1OC (centres unmarked) [Example 156, 2-(3,4-dimethoxyphenyl)-6-(8-(1-isopropylpiperidin-4-yl)-8-azabicyclo[3.2.1]octan-3-yl)-8-methyl-[1,2,4]triazolo[1,5-a]pyridine] | 234
COc1ccc(-c2nc3n(n2)CC(C2CC4CCC(C2)N4C2CCN(C(C)C)CC2)CC3)cc1OC (centres unmarked) [Example 148, 2-(3,4-dimethoxyphenyl)-6-(8-(1-isopropylpiperidin-4-yl)-8-azabicyclo[3.2.1]octan-3-yl)-5,6,7,8-tetrahydro-[1,2,4]triazolo[1,5-a]pyridine] | 303
Cc1cc(C2CCN(C3CC4CCC(C3)N4C3CCC3)CC2)cn2cc(-c3ccc(S(C)(=O)=O)cc3)nc12 (single isomer, unassigned) [Example 84, 6-(1-(8-cyclobutyl-8-azabicyclo[3.2.1]octan-3-yl)piperidin-4-yl)-8-methyl-2-(4-(methylsulfonyl)phenyl)imidazo[1,2-a]pyridine] | 21
COc1ccc(-c2nc3n(n2)CC(C2CCC(N4CCN(C(C)C)CC4)CC2)CC3C)cc1OC (centres unmarked) [Example 143, 2-(3,4-dimethoxyphenyl)-6-(4-(4-isopropylpiperazin-1-yl)cyclohexyl)-8-methyl-5,6,7,8-tetrahydro-[1,2,4]triazolo[1,5-a]pyridine] | 7330
COc1ccc(-c2nc3n(n2)CC(C2CC4CCC(C2)N4C2CCN(C4CC4)CC2)CC3)cc1OC (centres unmarked) [Example 145, 6-(8-(1-cyclopropylpiperidin-4-yl)-8-azabicyclo[3.2.1]octan-3-yl)-2-(3,4-dimethoxyphenyl)-5,6,7,8-tetrahydro-[1,2,4]triazolo[1,5-a]pyridine] | 342
Cc1cc(C2CCN(C3CC4CCC(C3)N4C3CCC3)CC2)cn2cc(-c3ccc(S(C)(=O)=O)cc3)nc12 (single isomer, unassigned) [Example 83, 6-(1-(8-cyclobutyl-8-azabicyclo[3.2.1]octan-3-yl)piperidin-4-yl)-8-methyl-2-(4-(methylsulfonyl)phenyl)imidazo[1,2-a]pyridine] | 12
Cc1cc(C2CC3CCC(C2)N3C2CCN(C3CC3)CC2)cn2nc(-c3ccc(S(C)(=O)=O)cc3)nc12 (centres unmarked) [Example 159, 6-(8-(1-cyclopropylpiperidin-4-yl)-8-azabicyclo[3.2.1]octan-3-yl)-8-methyl-2-(4-(methylsulfonyl)phenyl)-[1,2,4]triazolo[1,5-a]pyridine] | 594
COc1ccc(-c2nc3c(C)cc(C4CC5CCC(C4)N5C4CCN(C5CC5)CC4)cn3n2)cc1OC (centres unmarked) [Example 155, 6-(8-(1-cyclopropylpiperidin-4-yl)-8-azabicyclo[3.2.1]octan-3-yl)-2-(3,4-dimethoxyphenyl)-8-methyl-[1,2,4]triazolo[1,5-a]pyridine] | 214
COc1ccc(-c2nc3ccc(C4CCN(C5CCN(C6CC6)CC5)CC4)cn3n2)cc1OC [Example 164, 6-(1′-cyclopropyl-[1,4′-bipiperidin]-4-yl)-2-(3,4-dimethoxyphenyl)-[1,2,4]triazolo[1,5-a]pyridine] | 390
